Source: ChEMBL document CHEMBL3399942, “Identification and optimization of pyridazinones as potent and selective c-Met kinase inhibitors” (Bioorg Med Chem Lett, 2015)
Active and inactive are the calls of the source. The calls are words filed in the database; no cut-off is given here.

Tests used:
[1] = Lipophilicity, log D of the compound; type: physicochemical; settings: octanol/water
[2] = molecular target: T1, Hepatocyte growth factor receptor (Homo sapiens, UniProt P08581); test: Inhibition of GST-His6-tagged recombinant human c-Met kinase domain (956 to 1390) after 60 mins by anoff-chip mobility shift assay
Phosphodiesterase 3 [3] = molecular target: T2, Phosphodiesterase 3 (Homo sapiens, UniProt Q14432+Q13370); test: Inhibition of PDE3 (unknown origin) at 10 uM; type: protein assay
Phosphodiesterase 4 [4] = molecular target: T3, Phosphodiesterase 4 (Homo sapiens, UniProt P27815+Q08499+Q07343+Q08493); test: Inhibition of PDE4 (unknown origin) at 10 uM; type: protein assay
[5] = molecular target: T1, Hepatocyte growth factor receptor; test: Inhibition of c-Met kinase in human A549 cells assessed as inhibition of phosphorylation after 45 mins by electrochemiluminescence assay
[6] = Clearance in NMRI mouse at 0.2 mg/kg, iv and 0.5 mg/kg, po by LC/MS/MS analysis; type: ADME, organism-based; settings: in vivo
[7] = Oral bioavailability in NMRI mouse at 0.5 mg/kg by LC/MS/MS analysis; type: ADME, organism-based; settings: in vivo
[8] = Aqueous solubility of the compound in phosphate buffer at pH 7.4; type: physicochemical
Phosphodiesterase 3 [9] = molecular target: T2, Phosphodiesterase 3; test: Inhibition of PDE3 (unknown origin); type: protein assay
Phosphodiesterase 4 [10] = molecular target: T3, Phosphodiesterase 4; test: Inhibition of PDE4 (unknown origin); type: protein assay
[11] = Clearance in NMRI mouse at 2 mg/kg, iv after 24 hrs by LC/MS/MS analysis; type: ADME, organism-based; design: dose 2 mg/kg, route intravenous; settings: in vivo
[12] = Volume of distribution at steady state in NMRI mouse at 2 mg/kg, iv after 24 hrs by LC/MS/MS analysis; type: ADME, organism-based; design: dose 2 mg/kg, route intravenous; settings: in vivo, read-out: Vdss
[13] = Half life in NMRI mouse at 2 mg/kg, iv after 24 hrs by LC/MS/MS analysis; type: ADME, organism-based; design: dose 2 mg/kg, route intravenous; settings: in vivo
[14] = Cmax in NMRI mouse at 5 mg/kg, po after 24 hrs by LC/MS/MS analysis; type: ADME, organism-based; design: dose 5 mg/kg, route oral; settings: in vivo
[15] = Oral bioavailability in NMRI mouse at 5 mg/kg after 24 hrs by LC/MS/MS analysis; type: ADME, organism-based; settings: in vivo
[16] = Clearance in Wistar rat at 3 mg/kg, iv after 24 hrs by LC/MS/MS analysis; type: ADME, organism-based; design: dose 3 mg/kg, route intravenous; settings: in vivo
[17] = Volume of distribution at steady state in Wistar rat at 3 mg/kg, iv after 24 hrs by LC/MS/MS analysis; type: ADME, organism-based; design: dose 3 mg/kg, route intravenous; settings: in vivo, read-out: Vdss
[18] = Half life in Wistar rat at 3 mg/kg, iv after 24 hrs by LC/MS/MS analysis; type: ADME, organism-based; design: dose 3 mg/kg, route intravenous; settings: in vivo
[19] = Cmax in Wistar rat at 6 mg/kg, po after 24 hrs by LC/MS/MS analysis; type: ADME, organism-based; design: dose 6 mg/kg, route oral; settings: in vivo
[20] = Oral bioavailability in Wistar rat at 6 mg/kg after 24 hrs by LC/MS/MS analysis; type: ADME, organism-based; settings: in vivo
[21] = Clearance in cynomolgus monkey at 2 mg/kg, iv after 72 hrs by LC/MS/MS analysis; type: ADME, organism-based, Macaca fascicularis; design: dose 2 mg/kg, route intravenous; settings: in vivo
[22] = Volume of distribution at steady state in cynomolgus monkey at 2 mg/kg, iv after 72 hrs by LC/MS/MS analysis; type: ADME, organism-based, Macaca fascicularis; design: dose 2 mg/kg, route intravenous; settings: in vivo, read-out: Vdss
[23] = Half life in cynomolgus monkey at 2 mg/kg, iv after 72 hrs by LC/MS/MS analysis; type: ADME, organism-based, Macaca fascicularis; design: dose 2 mg/kg, route intravenous; settings: in vivo
[24] = Cmax in cynomolgus monkey at 5 mg/kg, po after 72 hrs by LC/MS/MS analysis; type: ADME, organism-based, Macaca fascicularis; design: dose 5 mg/kg, route oral; settings: in vivo
[25] = Oral bioavailability in cynomolgus monkey at 5 mg/kg after 72 hrs by LC/MS/MS analysis; type: ADME, organism-based, Macaca fascicularis; settings: in vivo
[26] = Clearance in beagle dog at 2 mg/kg, iv after 48 hrs by LC/MS/MS analysis; type: ADME, organism-based, Canis lupus familiaris; design: dose 2 mg/kg, route intravenous; settings: in vivo
[27] = Volume of distribution at steady state in beagle dog at 2 mg/kg, iv after 48 hrs by LC/MS/MS analysis; type: ADME, organism-based, Canis lupus familiaris; design: dose 2 mg/kg, route intravenous; settings: in vivo, read-out: Vdss
[28] = Half life in beagle dog at 2 mg/kg, iv after 48 hrs by LC/MS/MS analysis; type: ADME, organism-based, Canis lupus familiaris; design: dose 2 mg/kg, route intravenous; settings: in vivo
[29] = Cmax in beagle dog at 5 mg/kg, po after 48 hrs by LC/MS/MS analysis; type: ADME, organism-based, Canis lupus familiaris; design: dose 5 mg/kg, route oral; settings: in vivo
[30] = Oral bioavailability in beagle dog at 5 mg/kg after 48 hrs by LC/MS/MS analysis; type: ADME, organism-based, Canis lupus familiaris; settings: in vivo
[31] = Fraction unbound in NMRI mouse plasma; type: ADME, cell-free
[32] = Fraction unbound in Wistar rat plasma; type: ADME, cell-free
[33] = Fraction unbound in cynomolgus monkey plasma; type: ADME, cell-free, Macaca fascicularis
[34] = Fraction unbound in beagle dog plasma; type: ADME, cell-free, Canis lupus familiaris
[35] = Fraction unbound in human plasma; type: ADME, cell-free
[36] = Plasma protein binding in human at 10 uM; type: ADME, cell-free; settings: read-out: PPB (converted)
[37] = Plasma protein binding in human at 0.3 uM; type: ADME, cell-free; settings: read-out: PPB (converted)
EBC-1 = test: Antitumor activity against human EBC1 cells xenografted in CD-1 nude mouse assessed as tumor regression at 15 mg/kg, po qd administered for 5 days on and 2 days off up to 32 days; type: functional, organism-based; design: dose 15 mg/kg
[38] = Toxicity in po dosed CD-1 nude mouse xenografted with human EBC1 cells administered qd for 5 days on and 2 days off up to 32 days; type: organism-based; settings: in vivo
Mus musculus = test: Toxicity in CD-1 nude mouse xenografted with human EBC1 cells assessed as body weight loss at 15 mg/kg, po qd administered for 5 days on and 2 days off up to 32 days; type: organism-based; design: dose 15 mg/kg, route oral; settings: in vivo

T1 sequence (P08581 whole entry, the tested form may be a part): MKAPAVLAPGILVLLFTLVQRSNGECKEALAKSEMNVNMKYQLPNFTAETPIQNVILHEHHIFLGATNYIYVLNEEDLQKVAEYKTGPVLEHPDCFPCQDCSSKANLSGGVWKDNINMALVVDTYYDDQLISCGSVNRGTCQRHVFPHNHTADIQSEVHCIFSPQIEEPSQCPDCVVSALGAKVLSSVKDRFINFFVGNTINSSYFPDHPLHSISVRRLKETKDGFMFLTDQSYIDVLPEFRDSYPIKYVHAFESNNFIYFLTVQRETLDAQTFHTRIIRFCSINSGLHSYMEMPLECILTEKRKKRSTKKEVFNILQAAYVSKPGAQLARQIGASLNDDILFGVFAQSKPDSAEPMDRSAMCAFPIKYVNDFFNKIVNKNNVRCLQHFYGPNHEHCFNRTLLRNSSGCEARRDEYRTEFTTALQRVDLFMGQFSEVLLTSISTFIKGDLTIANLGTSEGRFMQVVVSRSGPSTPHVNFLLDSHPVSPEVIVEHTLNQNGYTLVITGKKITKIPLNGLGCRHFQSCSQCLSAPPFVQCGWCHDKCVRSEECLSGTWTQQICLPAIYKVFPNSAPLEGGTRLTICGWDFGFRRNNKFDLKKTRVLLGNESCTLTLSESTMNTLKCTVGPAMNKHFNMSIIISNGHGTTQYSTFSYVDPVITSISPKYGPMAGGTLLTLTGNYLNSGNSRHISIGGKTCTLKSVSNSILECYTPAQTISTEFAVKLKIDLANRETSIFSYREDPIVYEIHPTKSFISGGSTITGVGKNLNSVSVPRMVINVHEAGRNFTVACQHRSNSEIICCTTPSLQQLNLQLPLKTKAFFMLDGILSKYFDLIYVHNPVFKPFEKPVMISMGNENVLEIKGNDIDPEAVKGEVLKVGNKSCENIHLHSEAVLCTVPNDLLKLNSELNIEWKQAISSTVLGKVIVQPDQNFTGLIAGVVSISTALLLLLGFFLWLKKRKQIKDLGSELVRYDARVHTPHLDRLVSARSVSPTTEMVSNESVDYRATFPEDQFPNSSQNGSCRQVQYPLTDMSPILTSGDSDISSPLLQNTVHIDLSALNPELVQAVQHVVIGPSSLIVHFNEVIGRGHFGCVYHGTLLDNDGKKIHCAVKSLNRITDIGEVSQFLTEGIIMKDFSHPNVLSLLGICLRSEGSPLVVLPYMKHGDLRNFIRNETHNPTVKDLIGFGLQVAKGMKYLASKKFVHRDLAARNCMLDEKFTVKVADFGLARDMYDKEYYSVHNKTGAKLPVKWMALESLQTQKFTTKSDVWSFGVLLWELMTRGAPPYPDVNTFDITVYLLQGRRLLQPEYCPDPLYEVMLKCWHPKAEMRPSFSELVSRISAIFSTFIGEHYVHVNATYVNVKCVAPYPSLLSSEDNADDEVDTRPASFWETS

COc1cccc(-c2ccc(=O)n(Cc3cccc(-c4ncc(OCCCN(C)C)cn4)c3)n2)c1
logD [1]: 2.6

CCN(CC)CCCOC(=O)Nc1cccc(CN2N=C(c3ccc(Cl)cc3)CSC2=O)c1
IC50 [2]: 0.09 µM | inhibition (Phosphodiesterase 3 [3]): 1% | inhibition (Phosphodiesterase 4 [4]): 49%

CN(C)CCCOc1cnc(-c2cccc(Cn3nc(-c4cccc(F)c4)ccc3=O)c2)nc1
IC50 [2]: 0.0065 µM | IC50 [5]: 0.14 µM | logD [1]: 2.6

O=C(Nc1cccc(Cn2nc(-c3cc(F)cc(F)c3)ccc2=O)c1)OCCCN1CCOCC1
inhibition (Phosphodiesterase 3 [3]): 8% | inhibition (Phosphodiesterase 4 [4]): 19%

CN(C)CCCOC(=O)Nc1cccc(CN2N=C(c3cc(F)cc(F)c3)CSC2=O)c1
IC50 [2]: 0.023 µM | IC50 [5]: 0.078 µM | clearance [6]: 3.4 L/h/kg | bioavailability [7]: 25%

Cc1cnc(-c2cccc(Cn3nc(-c4cc(F)cc(F)c4)ccc3=O)c2)[nH]1
IC50 [2]: 5.3 µM

CN(C)CCCOC(=O)Nc1cccc(Cn2nc(-c3ccc(F)cc3)ccc2=O)c1
inhibition (Phosphodiesterase 3 [3]): 28% | inhibition (Phosphodiesterase 4 [4]): 8%

N#Cc1cccc(-c2ccc(=O)n(Cc3cccc(-c4ncc(OCCN5CCOCC5)cn4)c3)n2)c1
IC50 [2]: 0.001 µM | IC50 [5]: 0.034 µM | clearance [6]: 2.1 L/h/kg | bioavailability [7]: 35%

CN(C)CCCOC(=O)Nc1cccc(Cn2nc(-c3cc(F)cc(F)c3)ccc2=O)c1
clearance [6]: 3.1 L/h/kg | bioavailability [7]: 30%

CN(C)CCCOc1cnc(-c2cccc(Cn3nc(-c4cccc(C#N)c4)ccc3=O)c2)nc1
clearance [6]: 6.1 L/h/kg | bioavailability [7]: 32% | logD [1]: 2.4

CN(C)CCCOc1cnc(-c2cccc(Cn3nc(-c4cc(F)cc(F)c4)ccc3=O)c2)nc1
logD [1]: 3

Cc1cnc(-c2cccc(Cn3nc(-c4cc(F)cc(F)c4)ccc3=O)c2)nc1
solubility [8]: < 1 µg/mL

CCN(CC)CCCOC(=O)Nc1cccc(CN2N=C(c3ccc(OC)c(OC)c3)CSC2=O)c1
IC50 [2]: 0.4 µM | IC50 [5]: 1.1 µM | clearance [6]: 6 L/h/kg | bioavailability [7]: < 5% | IC50 (Phosphodiesterase 3 [9]): 1.5 µM | IC50 (Phosphodiesterase 4 [10]): 0.063 µM

Cc1nc(-c2cccc(Cn3nc(-c4cc(F)cc(F)c4)ccc3=O)c2)no1
IC50 [2]: 0.8 µM

CN1CCC(COc2cnc(-c3cccc(Cn4nc(-c5cccc(C#N)c5)ccc4=O)c3)nc2)CC1 [TEPOTINIB]
clearance [6]: 3.6 L/h/kg | bioavailability [7]: 34% | clearance [11]: 4 L/h/kg | Vd [12]: 8.2 L/kg | half-life [13]: 2.1 h | Cmax [14]: 0.0622 µg/mL | bioavailability [15]: 41% | clearance [16]: 4.7 L/h/kg | Vd [17]: 20 L/kg | half-life [18]: 3.2 h | Cmax [19]: 0.066 µg/mL | bioavailability [20]: 55% | clearance [21]: 0.73 L/h/kg | Vd [22]: 9.6 L/kg | half-life [23]: 10 h | Cmax [24]: 0.0555 µg/mL | bioavailability [25]: 25% | clearance [26]: 3.3 L/h/kg | Vd [27]: 26 L/kg | half-life [28]: 7.6 h | Cmax [29]: 0.0224 µg/mL | bioavailability [30]: 22% | fraction unbound [31]: 0.028 | fraction unbound [32]: 0.041 | fraction unbound [33]: 0.052 | fraction unbound [34]: 0.064 | fraction unbound [35]: 0.023 | fraction unbound at 10 µM [36]: 0.034 | fraction unbound at 0.3 µM [37]: 0.016 | Activity (EBC-1): Active | MTD [38]: 15 mg/kg | Activity (Mus musculus): Non-toxic

CN(C)CCCOc1cnc(-c2cccc(Cn3nc(-c4cccnc4)ccc3=O)c2)nc1
logD [1]: 1.4
